Data as given in patent US4221800A, “Cycloalkenochromone” (Miles Laboratories, Inc., priority 1977, dated 1980).

What was measured:
mast cells = experiment: inhibition of mast cell degranulation (spasmogen release) induced by phospholipase A; format: cell-based, rat; settings: for Relative Potency (in relation to disodium cromoglycate): IC20 relative to disodium cromoglycate, rat mast cells; for IC20: Mast cell, rat peritoneal mast cells, 37° C., ten minutes, read-out: IC20 (inhibition of mast cell degranulation by 20%)
Protocol: The anti-allergic activity was determined by measuring the inhibition of allergic release of spasmogens from mast cells, using the method of Taylor et al., as described in Int. Arch. Allergy, 46, 104(1974).
The inhibition of spasmogen release from mast cells involved obtaining pools of mast cells from normal rats. For each experiment involving pools of mast cells, 10 or more rats were killed by decapitation. The peritoneal fluid from the animals was pooled and the pool dispensed into small polyethylene tubes […] containing 25 μl of a degranulating agent phospholipase A (PL-A), and 25 μl of the drug to be tested. Each treatment was repeated in at least four tubes. All the tubes were incubated at 37° C. for ten minutes. The mast cells were fixed and stained by addition of 50 μl/tube of 2.5% toluidine blue made up in 25% acetic acid. The proportion of mast cells undergoing degranulation was assessed by counting under the microscope. At least 25 mast cells were counted from each tube. The percentage inhibition of degranulation resulting from each treatment was calculated using the formula 100[1-(x-z)/(y-z)], where `x` represents the mean percentage of cells undergoing degranulation in the tubes treated with PL-A and drug, `y` represents the mean percentage of cells undergoing degranulation in the tubes treated with PL-A only, and "z" represents the mean percentage of cells undergoing degranulation in the PL-A-negative tubes.
[See Nature, Vo. 223, 197 (1969)].

[1] = tested on: allergen-induced bronchoconstriction; settings: asthmatics; reference compound; cited from earlier work
[2] = tested on: allergic release of spasmogens in immediate hypersensitivity reactions; settings: immediate hypersensitivity reactions in several animals; Nature 223, 197 (1969); cited from earlier work

| Compound | Relative Potency (in relation to disodium cromoglycate) (mast cells) | IC20 (mast cells) [nM] | inhibition of experimental allergen-induced bronchoconstriction (in words) [1] | inhibition of allergic release of spasmogens (in words) [2] |
| --- | --- | --- | --- | --- |
| CSc1ccc2oc3c(c(=O)c2c1)CC(C(=O)O)CC3 (centres unmarked) [Example 18, 6-Methylthio-2,3-(4'-carboxycyclohexeno)chromone] | 5.0 | 1300 | – | – |
| CC1CCc2oc3ccc(C(=O)O)cc3c(=O)c2C1 (centres unmarked) [Example 3, 6-Carboxy-2,3-(4'-methylcyclohexeno)chromone] | 1.0 | 6500 | – | – |
| CCC1CCc2oc3cc(C(=O)O)ccc3c(=O)c2C1 (centres unmarked) [Example 26, 7-Carboxy-2,3-(4'-ethylcyclohexeno)chromone] | > 13.0 | < 600 | – | – |
| CCC1CCc2oc3ccc(-c4nn[nH]n4)cc3c(=O)c2C1 (centres unmarked) [Example 6, Sodium 6-(5-(1H)-tetrazolyl)-2,3-(4'-ethylcyclohexeno)chromone] | 6.5 | 1000 | – | – |
| O=C(O)c1ccc2oc3c(c(=O)c2c1)CC(OCc1ccccc1)CC3 (centres unmarked) [Example 15, 6-Carboxy-2,3-(4'-benzyloxycyclohexeno)chromone] | 1.5 | 4300 | – | – |
| O=c1c2c(oc3ccc(-c4nn[nH]n4)cc13)CCCC2 [Example 2, 6-(5-(1H)-tetrazolyl)-2,3-cyclohexenochromone] | 3.8 | 1700 | – | – |
| COC1CCc2oc3ccc(C(=O)O)cc3c(=O)c2C1 (centres unmarked) [Example 21, 6-Carboxy-2,3-(4'-methoxycyclohexeno)chromone] | 3.6 | 1800 | – | – |
| CCC1CCC2=C(C1)C(=O)c1cc(C(=O)O)ccc1S2(=O)=O (centres unmarked) [Example 32, 6-Carboxy-2,3-(4'-ethylcyclohexeno)thiochromone-1,1-dioxide] | 10.8 | 600 | – | – |
| CC1(c2ccccc2)CCc2oc3ccc(-c4nn[nH]n4)cc3c(=O)c2C1 (centres unmarked) [Example 31, 6-(5-(1H)-tetrazolyl)-2,3-(4'-methyl-4'-phenylcyclohexeno)chromone] | 4.3 | 1500 | – | – |
| O=C(O)c1cc(=O)c2c(OCC(O)COc3cccc4oc(C(=O)O)cc(=O)c34)cccc2o1 [disodium cromogylcate] | – | – | effective inhibitor of experimental allergen-induced bronchoconstriction in asthmatics | specifically inhibit the allergic release of spasmogens in immediate hypersensitivity reactions in several animals |
| O=C(O)c1ccc2c(=O)c3c(oc2c1)CCCC3 [Example 24, 7-Carboxy-2,3-cyclohexenochromone] | 3.1 | 2100 | – | – |
| CS(=O)(=O)c1ccc2oc3c(c(=O)c2c1)CC(C(=O)O)CC3 (centres unmarked) [Example 20, 6-Methylsulfonyl-2,3-(4'-carboxycyclohexeno)chromone] | 3.4 | 1900 | – | – |
| CCC1CCc2sc3ccc(C(=O)O)cc3c(=O)c2C1 (centres unmarked) [Example 33, 6-Carboxy-2,3-(4'-ethylcyclohexeno)thiochromone] | 1.41 | 4600 | – | – |
| CCC1CCc2sc3ccc(-c4nn[nH]n4)cc3c(=O)c2C1 (centres unmarked) [Example 35, 6-(5-(1H)-tetrazolyl)-2,3-(4'-ethylcyclohexeno)thiochromone] | 18,1 | 360 | – | – |
| CCC1CCc2oc3ccc(C(=O)O)cc3c(=O)c2C1 (centres unmarked) [Example 5, Sodium-6-carboxy-2,3-(4'-ethylcyclohexeno)chromone] | 11.2 | 580 | – | – |
| O=c1c2c(oc3cc(-c4nn[nH]n4)ccc13)CCCC2 [Example 25, 7(5-(1H)-tetrazolyl)-2,3-cyclohexenochromone] | 7.2 | 900 | – | – |
| CCOC(=O)C1CCc2oc3ccc(-c4nn[nH]n4)cc3c(=O)c2C1 (centres unmarked) [Example 8, 6-(5-(1H)-tetrazolyl)-2,3-(4'-ethoxycarbonylcyclohexeno)chromone] | 1.6 | 4200 | – | – |
| O=C(O)c1ccc2oc3c(c(=O)c2c1)CCCC3 [Example 1, 6-Carboxy-2,3-cyclohexenochromone] | 3.1 | 2100 | – | – |
| CC1CCc2oc3ccc(-c4nn[nH]n4)cc3c(=O)c2C1 (centres unmarked) [Example 4, 6-(5-(1H)-tetrazolyl)-2,3-(4'-methylcyclohexeno)chromone] | 1.4 | 4500 | – | – |
| O=c1c2c(oc3ccc(-c4nn[nH]n4)cc13)CCCCCC2 [Example 13, 6-(5-(1H)-tetrazolyl)-2,3-cyclooctenochromone] | 5.0 | 1300 | – | – |
| CCC1CCc2oc3cc(-c4nn[nH]n4)ccc3c(=O)c2C1 (centres unmarked) [Example 27, 7-(5-(1H)-tetrazolyl)-2,3-(4'-ethylcyclohexeno)chromone] | > 13.0 | < 600 | – | – |
| O=C(O)c1ccc2oc3c(c(=O)c2c1)CC(C(=O)O)CC3 (centres unmarked) [Example 7, 6-Carboxy-2,3-(4'-carboxycyclohexeno)chromone] | 1.0 | 6500 | – | – |
